# According to US8771975B2, “Quantitation of GCP activity in biological samples” (The Johns Hopkins University, priority 2011, dated 2014):
# Read-outs that look alike come from different tables or passages of the source.
# Key:
# [1] = system: GCP; test: GCP enzyme activity assay with human skin biopsy pellet ([3H]-NAAG cleavage); assay type: biochemical; conditions: 2-PMPA 1 μM added to assay mixture; [3H]-NAAG 70 nM, 37° C.
# Procedure: Punch skin biopsies (3 mm) were obtained from the distal thigh of healthy human volunteers after anesthesia with 0.5 cc 2% lidocaine subcutaneous injection. Samples were placed in cold Tris buffer (pH 7.4) and GCP enzymatic activity was carried out within 1 hour of collection. The skin were homogenized, the homogenate was centrifuged and the pellet was used as source of GCP in the enzyme activity assay. Briefly, human skin biopsies were sonicated in Tris buffer (pH 7.4, 40 mM, 0.5 mL) for 1 minute in ice. The mixture was centrifuged for 2 minutes at 16000×g; the supernantant (containing endogenous […]) was removed and the resulting pellet (containing GCP) was reconstituted in 70 μL assay buffer (Tris pH 7.4, 40 mM containing 1 mM CoCl2) and used as source of GCP in the activity assay. Reconstituted pellet was then incubated with [^3H] […] The radioactivity in each vial corresponding to [^3H]-glutamate was determined via a Beckman LS-6000IC scintillation counter. Radioactivity values in dpm were converted to fmoles of glutamate using the relation 1 pCi/2.2 dpm and the specific activity of [^3H]-glutamate (same as that of [^3H]-NAAG: 1 fmole/50 pCi). As a result, if 16711 dpm [^3H]-glutamate were measured after incubating 10 mg tissue for 1 h, the normalized activity would be: 16711 dpm×(1 pCi/2.2 dpm)×(1 fmole/50 pCi)/10 mg tissue=15 fmole/h/mg tissue. […]
# [2] = biological target: T1, GCP (Rattus norvegicus, UniProt P70627); assay type: in vivo; conditions: 1 hour after administration
# T1 construct: Reconstituted pellet preparations from rat paw pads were used as source of GCP II; from tissue; host or cells: male Wistar rat paw pad skin (plantar hindpaw), 16000xg pellet; animals dosed i.p. with 2-PMPA
# Procedure: A determination of GCP activity was carried out using male Wistar rat paw pads. Skin was collected from the planter hindpaw by 3 mm skin biopsy dissection and sonicated for 2 minutes in ice. The mixture was centrifuged for 2 minutes at 16000×g and the resulting pellet was reconstituted similar to the pellets obtained from the human skin dissections. Reconstituted pellet preparations from rat paw pads were used as source of GCP II and incubated with [^3H] NAAG, as described above for the human skin samples.
# In order to determine if GCP activity in skin in vivo could be inhibited by peripheral administration of 2-PMPA, rats were administered vehicle (HEPES saline, pH 7, 50 mM) or 2-PMPA (1, 10 and 100 mg/kg, i.p.) using a dosing volume of 2 mL/kg. There were 10 animals in each group. Animals were sacrificed 1 hour after 2-PMPA or vehicle administration. […]
# [3] = system: GCP; test: GCP activity in rat sciatic nerve after peripheral (i.p.) administration; assay type: in vivo; conditions: 1 hour after administration
# From the text: Sciatic nerve is the target tissue for GCP inhibitors in clinical trials for peripheral neuropathy and neuropathic pain. To obtain sciatic nerve samples, 1-2 cm incisions were made to the skin on top of the rat's mid-thigh so that sciatic nerve, gluteus superficialis muscle and biceps femoris muscle were exposed. The three were then separated and 5 mm of sciatic nerve was removed and analyzed as described above for the human skin and rat paw pad samples. GCP activity in sciatic nerve preparations from animals treated with 1, 10 and 100 mg/kg 2-PMPA was reduced to 92±11, 35±6 and 10±4% respectively compared to activity in sciatic nerve isolated from control animals (FIG. 3). Albeit to a different extent, GCP inhibition in sciatic nerve is attained at similar 2-PMPA doses (10 and 100 mg/kg i.p.) as in footpad tissue.
# [4] = 2-PMPA level in paw pads by LC-MS/MS; assay type: in vivo, rat; conditions: 100 mg/kg i.p., 1 hour after administration, n=9, LC-MS/MS
# Procedure: The presence of 2-PMPA in skin was determined. Animals were given 2-PMPA (100 mg/kg, i.p.), sacrificed 1 hour after compound administration and paw pads isolated for direct determination of 2-PMPA levels by LC-MS/MS. Since 2-PMPA detection by mass spectrometry has low sensitivity due to ion suppression, samples from animals that had received 100 mg/kg 2-PMPA rather than 10 mg/kg were analyzed to increase the probability of detecting 2-PMPA.
# Briefly, frozen samples were thawed in a water bath at ambient temperature and subjected to a liquid extraction using MeOH. Samples were placed in brown glass vials containing 500 μL of 100% MeOH. […] The sample was transferred to a 250 μL polypropylene auto sampler vial sealed with a Teflon crimp cap, and a volume of 50 μL was injected onto the HPLC instrument for quantitative analysis using a temperature-controlled auto sampling device operating at 10° C.
# Chromatographic analysis was performed using a Waters ACQUITY UPLC (Milford, Mass., USA). […] The column effluent was monitored using an AB SCIEX TRIPLE QUAD 5500 triple-quadrupole mass-spectrometric detector (Applied Biosystems, Foster City, Calif., USA). […] The daughter ions for 2-PMPA (m/z 191.1) and the internal standard (m/z 255.1) were monitored through the third quadrupole (Q3). […]
# T1 sequence (P70627 whole entry): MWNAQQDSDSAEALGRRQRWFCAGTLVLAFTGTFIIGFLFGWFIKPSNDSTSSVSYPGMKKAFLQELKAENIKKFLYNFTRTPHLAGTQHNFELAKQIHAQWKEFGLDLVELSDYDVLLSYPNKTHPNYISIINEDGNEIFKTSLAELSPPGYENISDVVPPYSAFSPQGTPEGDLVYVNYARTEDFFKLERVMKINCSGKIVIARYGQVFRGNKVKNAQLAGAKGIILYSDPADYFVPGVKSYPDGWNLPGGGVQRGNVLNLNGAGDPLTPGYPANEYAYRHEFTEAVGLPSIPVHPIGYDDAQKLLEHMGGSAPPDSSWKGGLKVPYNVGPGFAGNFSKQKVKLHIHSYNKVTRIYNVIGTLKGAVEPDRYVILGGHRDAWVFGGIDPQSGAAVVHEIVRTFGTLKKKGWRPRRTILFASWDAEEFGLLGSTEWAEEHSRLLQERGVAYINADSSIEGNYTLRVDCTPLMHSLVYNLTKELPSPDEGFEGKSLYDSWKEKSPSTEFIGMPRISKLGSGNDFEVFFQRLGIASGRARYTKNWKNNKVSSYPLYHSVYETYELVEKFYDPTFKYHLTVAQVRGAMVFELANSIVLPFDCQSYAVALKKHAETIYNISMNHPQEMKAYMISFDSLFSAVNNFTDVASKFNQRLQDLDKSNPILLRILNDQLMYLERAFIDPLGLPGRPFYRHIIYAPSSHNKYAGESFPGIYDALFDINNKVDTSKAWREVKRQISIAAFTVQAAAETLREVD
smiles,measurement,setting,value
O=C(O)CCC(CP(=O)(O)O)C(=O)O (stereo not shown) [2-PMPA],inhibition of GCP activity in human skin pellet preparations,[1],90%
same,GCP activity in paw pads compared to control animals,[2]; 10 mg/kg i.p.,60±11%
same,GCP activity in paw pads compared to control animals,[2]; 100 mg/kg i.p.,47±11%
same,GCP activity in sciatic nerve preparations compared to control animals,[3]; 1 mg/kg i.p.,92±11%
same,GCP activity in sciatic nerve preparations compared to control animals,[3]; 10 mg/kg i.p.,35±6%
same,GCP activity in sciatic nerve preparations compared to control animals,[3]; 100 mg/kg i.p.,10±4%
same,2-PMPA concentration in paw pads,[4],38±5 μg/g tissue
